Where two headings read alike, the source gives them in different places.
Key:
Type in all cases: biochemical, microflora of Ac1göl (Aci Lake)
[1] = tested on: esterase enzyme; assay: Effect of solutions (solvents) on enzyme activity; settings: for Effect of solutions on activity, Activity (%): 10% solution added into the reaction
Procedure: (§1) 6. […] The final concentration of the enzyme and substrate have been 1 μM and 1 mM respectively and absorbance measurements have been taken at 410 nm. The activity has been calculated by means of the below formula and one unit of activity has been defined as the enzyme amount which produces 1 μmol product in 1 minute.
(§2) Activity (U/L)=[(ΔAbs/t)/(ε*d)]*106*Vt/Vs • ΔAbs=Absorbance change; t=time (minute); ε=extinction coefficient (M−1 cm−1); d=light path (cm); Vt=total reaction volume; Vs=enzyme volume used in reaction.
(§3) Additionally, the effect of different solutions (hexane, chloroform, acetone, dimethyl formamide (DMF), dimethyl sulphoxide (DMSO), 2-propanol, butanol, 1-propanol, ethanol, methanol and glycerol) on the activity and stability of the enzyme have been measured. In the activity tests, 10% solution has been added into the reaction and in the stability tests the enzyme has been incubated for 24 hours in a buffer solution containing 15% and 30% solution.

[2] = tested on: esterase enzyme; assay: Effect of solutions (solvents) on enzyme stability (24 hours incubation); settings: for Effect of solutions on stability, Activity (%) 15% Solution: enzyme incubated 24 hours in buffer containing 15% solution; for Effect of solutions on stability, Activity (%) 30% Solution: enzyme incubated 24 hours in buffer containing 30% solution
Procedure: as §1, §2, §3

[3] = tested on: esterase enzyme; assay: Effect of metals on enzyme activity
[4] = tested on: esterase enzyme; assay: Effects of inhibitors and detergents on enzyme activity

| Compound | Activity (%) (1 mM metal) ([3]; 1 mM metal) | Activity (%) (5 mM metal) ([3]; 5 mM metal) | Activity (%) (1 mM inh.) ([4]; 1 mM inh.) | Activity (%) (5 mM inh.) ([4]; 5 mM inh.) | other results |
| --- | --- | --- | --- | --- | --- |
| ClC(Cl)Cl [Chloroform, chloroform] |  |  |  |  | Effect of solutions on activity, Activity (%) [1]: 5.1 ± 0.8%; Effect of solutions on stability, Activity (%) 15% Solution [2]: 97.9 ± 1.4%; Effect of solutions on stability, Activity (%) 30% Solution [2]: 100.2 ± 5.6% |
| O=S(=O)([O-])[O-].[Mn+2] [MnSO4] | 130.4 ± 0.4% | 110.3 ± 3.5% |  |  |  |
| CCCCCCCCCCCCOS(=O)(=O)[O-].[Na+] [SDS, sodium dodecyl sulphate] |  |  | 85.6 ± 2.9% | 5.0 ± 0.8% |  |
| O=[N+]([O-])[O-].[Ag+] [AgNO3] | 31.6 ± 6.5% | 0.0% |  |  |  |
| O=C(O)CN(CCN(CC(=O)O)CC(=O)O)CC(=O)O [EDTA, ethylene diamine tetraacetic acid] |  |  | 89.6 ± 1.7% | 66.5 ± 1.2% |  |
| CO [Methanol, methanol] |  |  |  |  | Effect of solutions on activity, Activity (%) [1]: 81.1 ± 1.1%; Effect of solutions on activity, Activity (%) ([1]; listed as methanol): 81%; Effect of solutions on stability, Activity (%) 15% Solution [2]: 108.5 ± 0.2%; Effect of solutions on stability, Activity (%) 30% Solution [2]: 99.4 ± 6.6% |
| [Cl-].[Cl-].[Mg+2] [MgCl2] | 130.2 ± 0.6% | 104.6 ± 3% |  |  |  |
| Tween-80 |  |  | 107.2 ± 7.9% | 80.7 ± 2.2% |  |
| CCCCCC [Hexane, hexane] |  |  |  |  | Effect of solutions on activity, Activity (%) [1]: 22.6 ± 4.9%; Effect of solutions on stability, Activity (%) 15% Solution [2]: 113.6 ± 8.5%; Effect of solutions on stability, Activity (%) 30% Solution [2]: 100.2 ± 4.9% |
| butanol |  |  |  |  | Effect of solutions on activity, Activity (%) [1]: 3.3 ± 3.3%; Effect of solutions on stability, Activity (%) 15% Solution [2]: 97.1 ± 3.3%; Effect of solutions on stability, Activity (%) 30% Solution [2]: 104.9 ± 2.4% |
| CC(C)=O [Acetone, acetone] |  |  |  |  | Effect of solutions on activity, Activity (%) [1]: 36 ± 4.9%; Effect of solutions on stability, Activity (%) 15% Solution [2]: 113.7 ± 2.5%; Effect of solutions on stability, Activity (%) 30% Solution [2]: 85.2 ± 5.6% |
| [Cl-].[Cl-].[Co+2] [CoCl2] |  |  |  |  | Activity (%) (1 mM metal) [3]: 112.7 ± 3.4%; Activity (%) (5 mM metal) [3]: 3.6 ± 1.0% |
| OCC(O)CO [Glycerol, glycerol] |  |  |  |  | Effect of solutions on activity, Activity (%) [1]: 104.2 ± 6.2%; increase of activity ([1]; in the presence of 10% solvents): 4%; Effect of solutions on stability, Activity (%) 15% Solution [2]: 113.3 ± 1.8%; Effect of solutions on stability, Activity (%) 30% Solution [2]: 106.9 ± 3.1% |
| CCCCCCCCCCCCCCCC[N+](C)(C)C.[Br-] [CTAB, cetrimonium bromide] |  |  | 91 ± 6.6% | 1.3 ± 0.3% |  |
| O=C(O)CN(CCOCCOCCN(CC(=O)O)CC(=O)O)CC(=O)O [EGTA, ethylene glycol tetraacetic acid] |  |  |  |  | Activity (%) (1 mM inh.) [4]: 100.2 ± 2.1%; Activity (%) (5 mM inh.) [4]: 87.6 ± 3.9% |
| O=S(=O)([O-])[O-].[Zn+2] [ZnSO4] | 6.1 ± 3.1% | 1.3 ± 1.2% |  |  |  |
| NP-40 |  |  | 101.9 ± 6.8% | 89.1 ± 1.5% |  |
| O=S(=O)(F)Cc1ccccc1 [PMSF, phenylmethanesulfonyl fluoride] |  |  | 1.3 ± 0.1% | 0.2% |  |
| [Cl-].[K+] [KCl] | 127.9 ± 3.9% | 98.2 ± 3.4% |  |  |  |
| Triton X-100 |  |  | 105.3 ± 2.4% | 87.7 ± 3.2% |  |
| O=S(=O)([O-])[O-].O=S(=O)([O-])[O-].O=S(=O)([O-])[O-].[Al+3].[Al+3] [Al2SO4] | 91.2 ± 9.8% | 0.0% |  |  |  |
| O[C@H](CS)[C@H](O)CS (racemic) [DTT, dithiothreitol] |  |  | 36.7 ± 2.4% | 25.1 ± 0.8% |  |
| [Ca+2].[Cl-].[Cl-] [CaCl2] | 130.2 ± 1.7% | 105.1 ± 1.4% |  |  |  |
| O=S(=O)([O-])[O-].[Cu+2] [CuSO4] | 117.5 ± 5% | 1.4 ± 1.1% |  |  |  |
| O=S(=O)([O-])[O-].[Fe+2] [FeSO4] | 115.7 ± 2.3% | 0.0% |  |  |  |
| [Cl][Ni][Cl] [NiCl2] | 110.4 ± 6.1% | 0.5% |  |  |  |
